# Results: US20230212116A1, “SARS-COV-2 MAIN PROTEASE INHIBITORS” (TEXAS A&M UNIVERSITY SYSTEM, priority 2020, published 2023)
# Where two headings read alike, the source gives them in different places.
# Columns and labels:
# SARS-CoV-2 [1] = assay type: cell-based
# SARS-CoV-2 [2] = test: microbe, parasite or virus in culture; assay type: cell-based
# SARS-CoV-2 [3] = assay type: cell-based; details: A549/ACE2 cells; tested 80 nM to 10 μM
# SARS-CoV-2 M^Pro [4] = target: T1, SARS-CoV-2 M^Pro (Severe acute respiratory syndrome coronavirus 2, UniProt P0DTD1); assay type: cell-based
# SARS-CoV-2 M^Pro [5] = target: T1, SARS-CoV-2 M^Pro; test: biochemical; assay type: biochemical
# [6] = Vero E6 cells, tested 80 nM to 10 μM, two repeats
# [7] = Severe acute respiratory syndrome coronavirus 2, Vero C1008, Vero E6 cells, plaque reduction, read-out: antiviral EC50
smiles,measurement,setting,value
"CC(C)C[C@H](NC(=O)OCc1ccccc1)C(=O)N[C@@H](CC1CCNC1=O)C(O)S(=O)(=O)O (stereo partly drawn) [GC376, (2S)-2-((S)-2-(((benzyloxy)carbonyl)amino)-4-methylpentanamido)-1-hydroxy-3-(2-oxopyrrolidin-3-yl)propane-1-sulfonic acid, reference compound]",concentration of complete abolition of SARS-CoV-2-induced CPE,SARS-CoV-2 [1]; [6],10 µM
"CC(C)C[C@H](NC(=O)[C@@H](NC(=O)OCc1ccccc1)C(C)C)C(=O)N[C@H](C=O)C[C@@H]1CCNC1=O [MPI3, benzyl ((S)-3-methyl-1-(((S)-4-methyl-1-oxo-1-(((S)-1-oxo-3-((S)-2-oxopyrrolidin-3-yl)propan-2-yl)amino)pentan-2-yl)amino)-1-oxobutan-2-yl)carbamate]",concentration of complete abolition of SARS-CoV-2-induced CPE,SARS-CoV-2 [1],not able to completely prevent CPE at all tested concentrations
"CC(C)[C@H](NC(=O)OCc1ccccc1)C(=O)N[C@@H](CC1CCCCC1)C(=O)N[C@H](C=O)C[C@@H]1CCNC1=O [MPI5, benzyl ((S)-1-(((S)-3-cyclohexyl-1-oxo-1-(((S)-1-oxo-3-((S)-2-oxopyrrolidin-3-yl)propan-2-yl)amino)propan-2-yl)amino)-3-methyl-1-oxobutan-2-yl)carbamate]",concentration of complete abolition of SARS-CoV-2-induced CPE,SARS-CoV-2 [1]; [6],5 µM
same,EC50,SARS-CoV-2 [2]; [7],73 nM
"CC(C)C[C@H](NC(=O)[C@@H](NC(=O)OCc1ccccc1)[C@@H](C)OC(C)(C)C)C(=O)N[C@H](C=O)C[C@@H]1CCNC1=O [MPI6, benzyl ((2S,3R)-3-(tert-butoxy)-1-(((S)-4-methyl-1-oxo-1-(((S)-1-oxo-3-((S)-2-oxopyrrolidin-3-yl)propan-2-yl)amino)pentan-2-yl)amino)-1-oxobutan-2-yl)carbamate]",EC50,"SARS-CoV-2 [2]; Severe acute respiratory syndrome coronavirus 2, Vero C1008, read-out: antiviral EC50, Vero E6 cells, plaque reduction",209 nM
"C[C@@H](OC(C)(C)C)[C@H](NC(=O)OCc1ccccc1)C(=O)N[C@@H](Cc1ccccc1)C(=O)N[C@H](C=O)C[C@@H]1CCNC1=O [MPI7, benzyl ((2S,3R)-3-(tert-butoxy)-1-oxo-1-(((S)-1-oxo-1-(((S)-1-oxo-3-((S)-2-oxopyrrolidin-3-yl)propan-2-yl)amino)-3-phenylpropan-2-yl)amino)butan-2-yl)carbamate]",concentration of complete abolition of SARS-CoV-2-induced CPE,SARS-CoV-2 [1]; [6],2.5 to 5 µM
same,concentration of complete abolition of SARS-CoV-2-induced CPE,SARS-CoV-2 [3],not able to completely abolish CPE at all tested conditions
same,EC50,SARS-CoV-2 [2]; [7],170 nM
"C[C@@H](OC(C)(C)C)[C@H](NC(=O)OCc1ccccc1)C(=O)N[C@@H](CC1CCCCC1)C(=O)N[C@H](C=O)C[C@@H]1CCNC1=O [MPI8, benzyl ((2S,3R)-3-(tert-butoxy)-1-(((S)-3-cyclohexyl-1-oxo-1-(((S)-1-oxo-3-((S)-2-oxopyrrolidin-3-yl)propan-2-yl)amino)propan-2-yl)amino)-1-oxobutan-2-yl)carbamate]",suppression of M^Pro-eGFP toxicity / promotion of cell survival and M^Pro-eGFP expression,SARS-CoV-2 M^Pro [4],effectively suppressed
"O=C[C@H](C[C@@H]1CCNC1=O)NC(=O)[C@H](CC1CCCCC1)NC(=O)c1cc2ccccc2[nH]1 [MPI10, N-((S)-3-cyclohexyl-1-oxo-1-(((S)-1-oxo-3-((S)-2-oxopyrrolidin-3-yl)propan-2-yl)amino)propan-2-yl)-1H-indole-2-carboxamide, reference compound]",concentration of complete abolition of SARS-CoV-2-induced CPE,SARS-CoV-2 [1]; [6],10 µM
same,concentration of complete abolition of SARS-CoV-2-induced CPE,SARS-CoV-2 [3],potency similar to that shown in Vero E6 cells
"CC1(C)[C@@H]2[C@@H](C(=O)N[C@H](C=O)C[C@@H]3CCNC3=O)N(C(=O)[C@H](Cc3ccccc3)NC(=O)OCc3ccccc3)C[C@@H]21 [MPI94, benzyl ((S)-1-((1R,2S,5S)-6,6-dimethyl-2-(((S)-1-oxo-3-((S)-2-oxopyrrolidin-3-yl)propan-2-yl)carbamoyl)-3-azabicyclo[3.1.0]hexan-3-yl)-1-oxo-3-phenylpropan-2-yl)carbamate]",IC50,SARS-CoV-2 M^Pro [5],267 ± 44 nM
"C[C@@H](OC(C)(C)C)[C@H](NC(=O)OCc1cccc(F)c1)C(=O)N[C@@H](CC1CCCCC1)C(=O)N[C@H](C=O)C[C@@H]1CCNC1=O [MPI102, 3-fluorobenzyl ((2S,3R)-3-(tert-butoxy)-1-(((S)-3-cyclohexyl-1-oxo-1-(((S)-1-oxo-3-((S)-2-oxopyrrolidin-3-yl)propan-2-yl)amino)propan-2-yl)amino)-1-oxobutan-2-yl)carbamate]",IC50,SARS-CoV-2 M^Pro [5]; read-out: Enzymatic IC50,307 nM
"C[C@@H](OC(C)(C)C)[C@H](NC(=O)OCc1ccc(F)cc1)C(=O)N[C@@H](CC1CCCCC1)C(=O)N[C@H](C=O)C[C@@H]1CCNC1=O [MPI103, 4-fluorobenzyl ((2S,3R)-3-(tert-butoxy)-1-(((S)-3-cyclohexyl-1-oxo-1-(((S)-1-oxo-3-((S)-2-oxopyrrolidin-3-yl)propan-2-yl)amino)propan-2-yl)amino)-1-oxobutan-2-yl)carbamate]",IC50,SARS-CoV-2 M^Pro [5]; read-out: Enzymatic IC50,196 ± 31 nM
